Data taken from patent US20100056526A1, “HETEROMONOCYCLIC COMPOUND AND USE THEREOF” (Takeda Pharmaceutical Company Limited, priority 2006, published 2010).
Structures can show the parent of a compound that is named as a salt. Where two headings read alike, the source gives them in different places.

How the values were obtained:
PPARγ = molecular target: T1, PPARγ (Homo sapiens, UniProt P37231); test: Evaluation of PPARγ activating action (luciferase reporter in PPARγ:RXRα:4ERPP/CHO-K1 cells); format: cell-based; conditions: CHO-K1, 24 h, read-out: PPARγ activating action (activation % (10^−6 M))
T1 construct: expressed in transfected cells; host or cells: CHO-K1
T1 sequence (P37231 1-477 isoform P37231-2): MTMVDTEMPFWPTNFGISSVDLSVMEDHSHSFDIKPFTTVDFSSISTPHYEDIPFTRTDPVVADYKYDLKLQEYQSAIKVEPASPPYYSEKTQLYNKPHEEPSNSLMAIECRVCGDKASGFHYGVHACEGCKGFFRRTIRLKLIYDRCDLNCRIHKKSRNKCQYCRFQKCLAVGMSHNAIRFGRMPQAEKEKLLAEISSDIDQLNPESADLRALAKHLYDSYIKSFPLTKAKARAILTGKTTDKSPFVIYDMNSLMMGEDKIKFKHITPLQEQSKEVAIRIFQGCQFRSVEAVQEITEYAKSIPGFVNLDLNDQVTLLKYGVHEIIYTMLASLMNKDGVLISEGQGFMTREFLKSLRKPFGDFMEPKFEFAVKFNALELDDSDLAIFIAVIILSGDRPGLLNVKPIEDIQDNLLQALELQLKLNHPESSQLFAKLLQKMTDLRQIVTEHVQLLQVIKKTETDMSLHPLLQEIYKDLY
T1 sequence (P19793 1-462 partner): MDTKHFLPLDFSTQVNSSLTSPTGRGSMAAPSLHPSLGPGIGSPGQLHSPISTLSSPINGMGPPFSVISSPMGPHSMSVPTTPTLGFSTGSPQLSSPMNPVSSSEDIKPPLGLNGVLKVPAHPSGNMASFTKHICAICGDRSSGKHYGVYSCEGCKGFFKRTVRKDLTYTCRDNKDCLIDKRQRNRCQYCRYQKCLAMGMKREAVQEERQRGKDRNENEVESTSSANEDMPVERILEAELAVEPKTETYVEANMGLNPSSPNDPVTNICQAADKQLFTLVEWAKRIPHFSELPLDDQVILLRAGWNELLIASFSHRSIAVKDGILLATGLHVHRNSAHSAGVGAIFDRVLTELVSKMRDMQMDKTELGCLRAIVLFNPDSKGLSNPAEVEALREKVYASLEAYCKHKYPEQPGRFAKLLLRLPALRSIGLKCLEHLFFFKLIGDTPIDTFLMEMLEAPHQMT
Summary of the method: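 Activity is expressed as percent, where vehicle gives 0% and 1 μM compound X gives 100%, based on luciferase luminescence. Reporter CHO-K1 cells co-expressing PPARγ:RXRα with a 4ERPP-driven luciferase were incubated with test compound for one day at 37 °C in medium with 0.1% fatty acid-free BSA.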

human AT1 receptor = molecular target: T2, human AT1 receptor (Homo sapiens, UniProt P30556); test: Binding assay using human AT1 receptor-expressing CHO-K1 cell membrane fraction ([125I]-angiotensin II); conditions: 22.5 pM [125I]-angiotensin II, 9 μg AT1 membrane, 1 hr room temperature; read-out: AT1 receptor binding inhibitory action (IC50 (nM))
T2 construct: expressed in transfected cells; host or cells: CHO-K1
T2 sequence (P30556 1-359): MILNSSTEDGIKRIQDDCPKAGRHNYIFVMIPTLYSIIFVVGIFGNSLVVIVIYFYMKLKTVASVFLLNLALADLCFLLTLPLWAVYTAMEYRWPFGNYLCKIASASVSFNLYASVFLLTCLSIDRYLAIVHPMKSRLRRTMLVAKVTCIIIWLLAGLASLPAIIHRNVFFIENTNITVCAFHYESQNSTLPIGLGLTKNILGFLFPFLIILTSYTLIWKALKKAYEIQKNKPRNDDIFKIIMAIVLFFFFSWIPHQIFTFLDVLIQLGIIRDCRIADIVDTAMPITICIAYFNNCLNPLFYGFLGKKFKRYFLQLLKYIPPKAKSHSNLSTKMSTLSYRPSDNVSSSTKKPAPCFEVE
Summary of the method: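 Radioligand displacement: test compound competed with [125I]-angiotensin II (22.5 pM) on stable CHO-K1 AT1 membrane fraction, 1 hr, room temperature, Tris pH 7.4/MgCl2 buffer ± 0.3 mg/mL BSA. Filtration then scintillation counting; 1 μM CV-11974 defined nonspecific binding. Values are IC50s.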

[1] = test compound 10^−6 M, luciferase activity relative to control compound X (1 μM) = 100%, non-administration group = 0%

| SMILES | activation at 1 µM (PPARγ; [1]) [%] | IC50 (human AT1 receptor) [nM] | activation at 1 µM (PPARγ) [%] |
| --- | --- | --- | --- |
| CCCc1nc(C)n(-c2ccc3c(c2)CCC(C)(C)O3)c(=O)c1Cc1ccc(-c2ccccc2-c2noc(=O)[nH]2)cc1 [Example 131, 3-(2,2-dimethyl-3,4-dihydro-2H-chromen-6-yl)-2-methyl-5-{[2′-(5-oxo-4,5-dihydro-1,2,4-oxadiazol-3-yl)biphenyl-4-yl]methyl}-6-propylpyrimidin-4(3H)-one] | 34.2 | 2.2 | – |
| CCCOc1ccc(-n2c(C)nc(CCC)c(Cc3ccc(-c4ccccc4-c4noc(=O)[nH]4)cc3)c2=O)cc1 [Example 249, 2-methyl-5-{[2′-(5-oxo-4,5-dihydro-1,2,4-oxadiazol-3-yl)biphenyl-4-yl]methyl}-3-(4-propoxyphenyl)-6-propylpyrimidin-4(3H)-one] | 30.5 | 1.6 | – |
| CCSc1nc(C)c(Cc2ccccc2)c(=O)n1Cc1ccc(-c2ccccc2-c2noc(=O)[nH]2)cc1 [Example 3, 5-benzyl-2-(ethylthio)-6-methyl-3-{[2′-(5-oxo-4,5-dihydro-1,2,4-oxadiazol-3-yl)biphenyl-4-yl]methyl}pyrimidin-4(3H)-one] | 57.1 | 2.5 | – |
| CCCc1nc(CC)n(-c2ccc3c(c2)CC(C)O3)c(=O)c1Cc1ccc(-c2ccccc2-c2noc(O)n2)cc1 (stereo not drawn) [Example 312, 2-ethyl-3-(2-methyl-2,3-dihydro-1-benzofuran-5-yl)-5-{[2′-(5-oxo-4,5-dihydro-1,2,4-oxadiazol-3-yl)biphenyl-4-yl]methyl}-6-propylpyrimidin-4(3H)-one potassium salt] | – | 1.6 | 50.3 |
| CCCCc1nc(C)n(CC2CCCCO2)c(=O)c1Cc1ccc(-c2ccccc2-c2noc(=O)[nH]2)cc1 (stereo not drawn) [Example 160, 6-butyl-2-methyl-5-{[2′-(5-oxo-4,5-dihydro-1,2,4-oxadiazol-3-yl)biphenyl-4-yl]methyl}-3-(tetrahydro-2H-pyran-2-ylmethyl)pyrimidin-4(3H)-one] | 61.6 | 1.8 | – |
| CCCCc1nc(C)n(CC(=O)C(C)(C)C)c(=O)c1Cc1ccc(-c2ccccc2-c2noc(=O)[nH]2)cc1 [Example 37, 6-butyl-3-(3,3-dimethyl-2-oxobutyl)-2-methyl-5-{[2′-(5-oxo-4,5-dihydro-1,2,4-oxadiazol-3-yl)biphenyl-4-yl]methyl}pyrimidin-4(3H)-one] | 29.8 | 1.3 | – |
| CCCCc1nc(C)n(CCCC)c(=O)c1Cc1ccc(-c2ccccc2-c2noc(=O)[nH]2)cc1 [Example 294, 3,6-dibutyl-2-methyl-5-{[2′-(5-oxo-4,5-dihydro-1,2,4-oxadiazol-3-yl)biphenyl-4-yl]methyl}pyrimidin-4(3H)-one] | 47.1 | 1.8 | – |
| CCCc1nc(CC)n(-c2ccc(OC(C)(C)C)cc2)c(=O)c1Cc1ccc(-c2ccccc2-c2noc(=O)[nH]2)cc1 [Example 364, 3-(4-tert-butoxyphenyl)-2-ethyl-5-{[2′-(5-oxo-4,5-dihydro-1,2,4-oxadiazol-3-yl)biphenyl-4-yl]methyl}-6-propylpyrimidin-4(3H)-one] | 32.6 | 1.9 | – |

Now from value to molecule, other results behind:

| activation at 1 µM (PPARγ; [1]) [%] | IC50 (human AT1 receptor) [nM] | SMILES | activation at 1 µM (PPARγ) [%] |
| --- | --- | --- | --- |
| 53.7 | 2.1 | CCCc1nc(CC)n(-c2ccc(OC(C)C)c(F)c2)c(=O)c1Cc1ccc(-c2ccccc2-c2noc(=O)[nH]2)cc1 [Example 363, 2-ethyl-3-(3-fluoro-4-isopropoxyphenyl)-5-{[2′-(5-oxo-4,5-dihydro-1,2,4-oxadiazol-3-yl)biphenyl-4-yl]methyl}-6-propylpyrimidin-4(3H)-one] | – |
| 52.9 | 2.1 | CCCCc1nc(C)c(C(O)c2ccccc2)c(=O)n1Cc1ccc(-c2ccccc2-c2noc(=O)[nH]2)cc1 (stereo not drawn) [Example 452, 2-butyl-5-[hydroxy(phenyl)methyl]-6-methyl-3-{[2′-(5-oxo-4,5-dihydro-1,2,4-oxadiazol-3-yl)biphenyl-4-yl]methyl}pyrimidin-4(3H)-one] | – |
| 23.7 | 1.8 | CCCc1nc(C)c(-c2ccc(OC(C)C)cc2)c(=O)n1Cc1ccc(-c2ccccc2-c2noc(O)n2)cc1F [Example 450, 3-{[3-fluoro-2′-(5-oxo-4,5-dihydro-1,2,4-oxadiazol-3-yl)biphenyl-4-yl]methyl}-5-(4-isopropoxyphenyl)-6-methyl-2-propylpyrimidin-4(3H)-one] | – |
| 31 | 3.4 | CCCc1nc(C)n(OC2CCOCC2)c(=O)c1Cc1ccc(-c2ccccc2-c2noc(=O)[nH]2)cc1 [Example 379, 2-methyl-5-{[2′-(5-oxo-4,5-dihydro-1,2,4-oxadiazol-3-yl)biphenyl-4-yl]methyl}-6-propyl-3-(tetrahydro-2H-pyran-4-yloxy)pyrimidin-4(3H)-one] | – |
| 46.9 | 1.5 | CCCc1nc(CC)n(-c2ccc(OC3CCOCC3)cc2)c(=O)c1Cc1ccc(-c2ccccc2-c2noc(=O)[nH]2)cc1 [Example 378, 2-ethyl-5-{[2′-(5-oxo-4,5-dihydro-1,2,4-oxadiazol-3-yl)biphenyl-4-yl]methyl}-6-propyl-3-[4-(tetrahydro-2H-pyran-4-yloxy)phenyl]pyrimidin-4(3H)-one] | – |
| 49.7 | 1 | CCCc1nc(CC)n(-c2ccc(O[C@H]3CC[C@@H](O)CC3)cc2)c(=O)c1Cc1ccc(-c2ccccc2-c2noc(=O)[nH]2)cc1 [Example 415, 2-ethyl-3-{4-[(cis-4-hydroxycyclohexyl)oxy]phenyl}-5-{[2′-(5-oxo-4,5-dihydro-1,2,4-oxadiazol-3-yl)biphenyl-4-yl]methyl}-6-propylpyrimidin-4(3H)-one] | – |
| 16.6 | 1.1 | CCCc1nc(C)n(-c2ccc(OC3CCC(=O)C(C)C3)cc2)c(=O)c1Cc1ccc(-c2ccccc2-c2noc(O)n2)cc1 (stereo not drawn) [Example 356, 2-methyl-3-{4-[(3-methyl-4-oxocyclohexyl)oxy]phenyl}-5-{[2′-(5-oxo-4,5-dihydro-1,2,4-oxadiazol-3-yl)biphenyl-4-yl]methyl}-6-propylpyrimidin-4(3H)-one] | – |
| 33.7 | 1.6 | CCCc1nc(CC)n(-c2ccc(O[C@@H]3C[C@@H](C)O[C@@H](C)C3)cc2)c(=O)c1Cc1ccc(-c2ccccc2-c2noc(=O)[nH]2)cc1 [Example 417, 3-(4-{[(2R,4s,6S)-2,6-dimethyltetrahydro-2H-pyran-4-yl]oxy}phenyl)-2-ethyl-5-{[2′-(5-oxo-4,5-dihydro-1,2,4-oxadiazol-3-yl)biphenyl-4-yl]methyl}-6-propylpyrimidin-4(3H)-one] | – |
| 27.2 | 1.2 | CCCc1nc(CC)n(-c2ccc(OC3CCCC3=O)cc2)c(=O)c1Cc1ccc(-c2ccccc2-c2noc(=O)[nH]2)cc1 (stereo not drawn) [Example 382, 2-ethyl-3-{4-[(2-oxocyclopentyl)oxy]phenyl}-5-{[2′-(5-oxo-4,5-dihydro-1,2,4-oxadiazol-3-yl)biphenyl-4-yl]methyl}-6-propylpyrimidin-4(3H)-one] | – |
| 31.8 | 2.6 | CCCc1nc(C)c(-c2ccc(OCC3CC3)nc2)c(=O)n1Cc1ccc(-c2ccccc2-c2noc(=O)[nH]2)cc1F [Example 501, 5-[6-(cyclopropylmethoxy)pyridin-3-yl]-3-{[3-fluoro-2′-(5-oxo-4,5-dihydro-1,2,4-oxadiazol-3-yl)biphenyl-4-yl]methyl}-6-methyl-2-propylpyrimidin-4(3H)-one] | – |
